Results: publication PMC9697025, “Discovery of N-Containing (-)-Borneol Esters as Respiratory Syncytial Virus Fusion Inhibitors” (Pharmaceuticals, 2022)
Where two headings read alike, the source gives them in different places. Marks after values point to notes of the source that are not given here.

How the values were obtained:
[1] = system: A/Puerto Rico/8/34 (H1N1) virus; design: method as in PMID 30108810; conditions: CC50/IC50H1N1, A/Puerto Rico/8/34 (H1N1) ref 15; cited from earlier work
rVSV-ΔG-MarV-GP = conditions: CC50/IC50MarV-GP, HEK293T cells ref 12,13; cited from earlier work
pSARS-CoV-2-S = system: pSARS-CoV-2-S; design: method as in PMID 35746766; conditions: CC50/IC50pSARS-CoV-2-S, pseudovirus ref 14; cited from earlier work
SARS-CoV-2 = system: SARS-CoV-2; design: method as in PMID 35746766; conditions: CC50/IC50SARS-CoV-2, against various SARS-CoV-2 virus strains ref 14; cited from earlier work
rVSV-ΔG-EboV-GP = conditions: CC50/IC50EboV-GP, HEK293T cells ref 12,13; cited from earlier work
RSV A strain A2 = assay: In vitro antiviral assay against RSV A strain A2 in HEp-2 cells (ELISA, virus titer); format: cell-based, respiratory syncytial virus; conditions: for IC50: RSV A strain A2 in HEp-2 cells, mean ± SD
[2] = MTT cytotoxicity assay with non-infected HEp2 cells; conditions: human
Vaccinia virus = conditions: CC50/IC50VACV ref 16; cited from earlier work
RSV A strain = conditions: for effect on viral titer, time-of-addition: compound added at 1 h post infection; for inhibitory activity, time-of-addition: compound added at later time points (after 2 h post infection); for time of addition up to which antiviral activity was maintained: post infection
RSV = assay: Temperature shift assay (virus attachment at 4 °C vs post-binding); conditions: unbound virus washed away, compound added before shift to 37 °C
in vitro = conditions: human
[3] = human respiratory syncytial virus, HEp-2, 50% decrease in virus replication
[4] = selectivity index, CC50/IC50 ratio, RSV A2 / HEp-2

CCCCN(CCCC)CCC(=O)OC1CC2CCC1(C)C2(C)C (stereo not drawn) [IV (n=2)]
SIH1N1 [1]: ^c SIH1N1 = 12 | SIMarV-GP (rVSV-ΔG-MarV-GP): ^a SIMarV-GP = 15 | SIpSARS-CoV-2-S (pSARS-CoV-2-S): ^e SIpSARS-CoV-2-S = 29 | SISARS-CoV-2 (SARS-CoV-2): SISARS-CoV-2 = 6–102 *

CN1CCN(CC(=O)OC2CC3CCC2(C)C3(C)C)CC1 (stereo not drawn) [I (n=1)]
SIH1N1 [1]: ^c SIH1N1 = 23 | SIMarV-GP (rVSV-ΔG-MarV-GP): ^a SIMarV-GP = 14 | SIEboV-GP (rVSV-ΔG-EboV-GP): ^b SIEboV-GP = 46

CC1(C)[C@H]2CC[C@]1(C)[C@H](OC(=O)CCN1CCOCC1)C2 [Compound 5b]
SI (RSV A strain A2): 15 | IC50 (RSV A strain A2; [3]): 8.5 ± 2.8 µM | SIH1N1 [1]: ^c SIH1N1 = 45 | SIMarV-GP (rVSV-ΔG-MarV-GP): ^a SIMarV-GP = 5 | SIpSARS-CoV-2-S (pSARS-CoV-2-S): ^e SIpSARS-CoV-2-S = 18 | CC50 at 24 h [2]: 127 ± 15.2 µM | SIEboV-GP (rVSV-ΔG-EboV-GP): ^b SIEboV-GP = 36 | SIVACV (Vaccinia virus): ^d SIVACV = 48

CN(C)CCC(=O)O[C@@H]1C[C@@H]2CC[C@@]1(C)C2(C)C [Compound 3b]
effect on viral titer, time-of-addition (RSV A strain): significant reduction in viral titer | inhibitory activity, time-of-addition (RSV A strain): lost their inhibitory activity | time of addition up to which antiviral activity was maintained (RSV A strain): up to 2 h | IC50 (RSV A strain A2; [3]): 8.9 ± 2.4 µM | SI (RSV A strain A2; [4]): 111 | CC50 at 24 h [2]: 983 ± 44.2 µM | anti-RSV activity, temperature shift conditions (B) (RSV): antiviral activity was maintained

CCCCN(CCCC)CC(=O)OC1CC2CCC1(C)C2(C)C (stereo not drawn) [IV (n=1)]
SIH1N1 [1]: ^c SIH1N1 = 16 | SIMarV-GP (rVSV-ΔG-MarV-GP): ^a SIMarV-GP = 6 | SIpSARS-CoV-2-S (pSARS-CoV-2-S): ^e SIpSARS-CoV-2-S = 10 | SISARS-CoV-2 (SARS-CoV-2): SISARS-CoV-2 = 11–40 *

CC1(C)[C@H]2CC[C@]1(C)[C@H](OC(=O)CCCN1CCOCC1)C2 [Compound 5c]
IC50 (RSV A strain A2; [3]): 5.8 ± 0.9 µM | SI (RSV A strain A2; [4]): 53 | CC50 at 24 h [2]: 307 ± 24.1 µM | SIVACV (Vaccinia virus): ^d SIVACV = 23

CCN1CCN(CC(=O)OC2CC3CCC2(C)C3(C)C)CC1 (stereo not drawn) [II (n=1)]
SIH1N1 [1]: ^c SIH1N1 = 16 | SIMarV-GP (rVSV-ΔG-MarV-GP): ^a SIMarV-GP = 29 | SIEboV-GP (rVSV-ΔG-EboV-GP): ^b SIEboV-GP = 80

CCN1CCN(CCC(=O)OC2CC3CCC2(C)C3(C)C)CC1 (stereo not drawn) [II (n=2)]
SIH1N1 [1]: ^c SIH1N1 = 12 | SIMarV-GP (rVSV-ΔG-MarV-GP): ^a SIMarV-GP = 47 | SIEboV-GP (rVSV-ΔG-EboV-GP): ^b SIEboV-GP = 170

CC1(C)[C@H]2CC[C@]1(C)[C@H](OC(=O)CN1CCOCC1)C2 [Compound 5a]
effect on viral titer, time-of-addition (RSV A strain): significant reduction in viral titer | inhibitory activity, time-of-addition (RSV A strain): lost their inhibitory activity | time of addition up to which antiviral activity was maintained (RSV A strain): up to 2 h | SI (RSV A strain A2): 83 | IC50 (RSV A strain A2; [3]): 5 ± 1 µM | SIH1N1 [1]: ^c SIH1N1 = 82 | SIMarV-GP (rVSV-ΔG-MarV-GP): ^a SIMarV-GP = 5 | SIpSARS-CoV-2-S (pSARS-CoV-2-S): ^e SIpSARS-CoV-2-S = 5 | CC50 at 24 h [2]: 413 ± 35.1 µM | anti-RSV activity, temperature shift conditions (B) (RSV): antiviral activity was maintained | SIEboV-GP (rVSV-ΔG-EboV-GP): ^b SIEboV-GP = 13 | SIVACV (Vaccinia virus): ^d SIVACV = 56

CN1CCN(CCC(=O)OC2CC3CCC2(C)C3(C)C)CC1 (stereo not drawn) [I (n=2)]
SIH1N1 [1]: ^c SIH1N1 = 25 | SIMarV-GP (rVSV-ΔG-MarV-GP): ^a SIMarV-GP = 20 | SIEboV-GP (rVSV-ΔG-EboV-GP): ^b SIEboV-GP = 870

NC(=O)c1ncn([C@@H]2O[C@H](CO)[C@@H](O)[C@H]2O)n1 [Ribavirin, reference compound]
SI (RSV A strain A2): 50 | IC50 (RSV A strain A2; 50% decrease in virus replication): 80.1 ± 13.5 µM | IC50 (RSV A strain A2; [3]): 80 µM | CC50 at 24 h (in vitro): < 4000 µM

CC1(C)[C@H]2CC[C@]1(C)[C@H](OC(=O)CCN1CCCCC1)C2 [Compound 6b]
effect on viral titer, time-of-addition (RSV A strain): significant reduction in viral titer | inhibitory activity, time-of-addition (RSV A strain): lost their inhibitory activity | time of addition up to which antiviral activity was maintained (RSV A strain): up to 2 h | IC50 (RSV A strain A2; [3]): 14.6 ± 1.2 µM | SI (RSV A strain A2; [4]): 22 | CC50 at 24 h [2]: 326 ± 45.6 µM | anti-RSV activity, temperature shift conditions (B) (RSV): antiviral activity was maintained

CC1(C)[C@H]2CC[C@]1(C)[C@H](OC(=O)CCN1CCN(c3ccccc3)CC1)C2 [Compound 14b, (1S,2R,4S)-1,7,7-Trimethylbicyclo [2.2.1]heptan-2-yl 3-(4-phenylpiperazin-1-yl)propanoate]
IC50 (RSV A strain A2; [3]): 8.1 ± 0.9 µM | SI (RSV A strain A2; [4]): 45 | melting point: 83 °C | CC50 at 24 h [2]: 366 ± 25.8 µM

CN1CCN(CC(=O)O[C@@H]2C[C@@H]3CC[C@@]2(C)C3(C)C)CC1 [Compound 9a]
IC50 (RSV A strain A2; [3]): 13.9 ± 2.4 µM | SI (RSV A strain A2; [4]): 19 | CC50 at 24 h [2]: 267 ± 16.5 µM
